Test results taken from patent publication US20060276464A1, “Diarylsulfone sulfonamides and use thereof” (Wyeth, priority 2005, published 2006).
“And” between values parts separate entries of the source, which are not always exact repeats. Identical values can stand only once. Like-named read-outs stand apart in the source and are kept apart here.

Tests used:
SFRP-1 [1] = target: T1, SFRP-1 (Homo sapiens, UniProt Q8N474); assay: Fluorescence polarization binding assay (competitive displacement of a probe compound from SFRP-1); conditions: fluorescence anisotropy, 45 nM SFRP-1, 20 nM probe;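 further: test compound competes with a fluorescent probe held by SFRP-1, seen as a drop in probe anisotropy after incubation in darkness, with anisotropy as function of rising compound dose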
T1 sequence (Q8N474 32-314): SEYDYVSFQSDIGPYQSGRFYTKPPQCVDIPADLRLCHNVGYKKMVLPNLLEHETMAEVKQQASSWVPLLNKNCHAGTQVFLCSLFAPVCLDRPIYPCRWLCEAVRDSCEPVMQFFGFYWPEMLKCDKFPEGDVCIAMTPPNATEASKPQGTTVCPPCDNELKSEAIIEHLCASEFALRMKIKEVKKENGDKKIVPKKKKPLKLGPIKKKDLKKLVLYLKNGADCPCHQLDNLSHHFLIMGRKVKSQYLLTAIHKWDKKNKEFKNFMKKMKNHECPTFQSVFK

SFRP-1 [2] = target: T1, SFRP-1; assay: Cell-based assay for in vitro measurement of SFRP-1/SARP2 antagonist activity (U2OS cells co-transfected with 16x TCF-tk-Luciferase reporter, Wnt and hSFRP-1); conditions: for fold induction at 15 µM / fold induction at 10 µM: U2OS; for fold induction at 10 µM: read-out: Fold Induction with SFRP-1, U2OS cells, single dose 10 μM, luciferase reporter, fold induction over SFRP-1 control;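 on all read-outs here: U2OS cells co-transfected with a TCF-tk luciferase reporter, a Wnt vector, hSFRP-1 or empty vector and CMV-βgal, luciferase luminescence read in cell lysates alongside βgal activity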
[3] = read-out: Fold Induction with SFRP-1, Conc 15 μM, with SFRP-1, fold induction over SFRP-1 control, single dose
[4] = read-out: Fold Induction without SFRP-1, Conc 15 μM, without SFRP-1, single dose

Row | IC50 (SFRP-1 [1]) | fold induction at 15 µM (SFRP-1 [2]; [3]) | fold induction at 15 µM (SFRP-1 [2]; [4]) | EC50 (SFRP-1 [2]) [µM] | fold induction at 10 µM (SFRP-1 [2]) | fold induction at 15 µM (SFRP-1 [2]; read-out: Fold Induction with SFRP-1, Conc 15 μM, single dose, luciferase reporter, fold induction over SFRP-1 control, cells with SFRP-1) | fold induction at 15 µM (SFRP-1 [2]; read-out: Fold Induction without SFRP-1, Conc 15 μM, single dose, luciferase reporter, cells without SFRP-1 (specificity control)) | Compound
1 | 3 µM | 2.1 | 1 |  |  |  |  | COc1ccc(C(=O)N2CCC(NS(=O)(=O)c3cc(S(=O)(=O)c4ccccc4)ccc3C)CC2)cc1OC [Example 464, N-[1-(3,4-dimethoxybenzoyl)piperidin-4-yl]-2-methyl-5-(phenylsulfonyl)benzenesulfonamide]
2 | 0.04 µM |  |  | 0.294 |  |  |  | O=C([C@@H]1CSCN1)N1CCC(NS(=O)(=O)c2cc(S(=O)(=O)c3ccccc3)ccc2C(F)(F)F)CC1 [Example 1056, 5-(phenylsulfonyl)-N-{1-[(4R)-1,3-thiazolidin-4-ylcarbonyl]piperidin-4-yl}-2-(trifluoromethyl)benzenesulfonamide]
3 | 0.8 µM |  |  |  | 4.6 |  |  | CN(CCNS(=O)(=O)c1cc(S(=O)(=O)c2ccccc2)ccc1C(F)(F)F)C(=O)NC1CCN(C(=O)OC(C)(C)C)CC1 [Example 866]
4 | 2 µM |  |  |  | 3.1 |  |  | O=S(=O)(N[C@H]1CCCNC1)c1cc(S(=O)(=O)c2ccccc2)ccc1C(F)(F)F [Example 790, 5-(phenylsulfonyl)-N-[(3S)-piperidin-3-yl]-2-(trifluoromethyl)benzenesulfonamide]
5 | 0.3 µM |  |  | 1.65 | 3.3 |  |  | CN(CCNS(=O)(=O)c1cc(S(=O)(=O)c2ccccc2)ccc1C(F)(F)F)C(=O)C(C)(C)C [Example 852, N,2,2-trimethyl-N-[2-({[5-(phenylsulfonyl)-2-(trifluoromethyl)phenyl]sulfonyl}amino)ethyl]propanamide]
6 | 0.2 µM |  |  | 0.79 | 4.5 |  |  | O=S(=O)(NCCc1ccc[n+]([O-])c1)c1cc(S(=O)(=O)c2ccccc2)ccc1C(F)(F)F [Example 723, N-[2-(1-oxidopyridin-3-yl)ethyl]-5-(phenylsulfonyl)-2-(trifluoromethyl)benzenesulfonamide]
7 | 0.9 µM |  |  | 1.52 |  |  |  | CN(CCNS(=O)(=O)c1cc(S(=O)(=O)c2ccccc2)ccc1C(F)(F)F)C(=O)N(C)C1CCNCC1 [Example 1007, N-[2-(methyl{[methyl(piperidin-4-yl)amino]carbonyl}amino)ethyl]-5-(phenylsulfonyl)-2-(trifluoromethyl)benzenesulfonamide]
8 | 0.3 µM |  |  | 1.39 | 3.9 |  |  | O=C(O)c1cccc(N2CCC(CCNS(=O)(=O)c3cc(S(=O)(=O)c4ccccc4)ccc3C(F)(F)F)CC2)c1 [Example 957, 3-{4-[2-({[5-(phenylsulfonyl)-2-(trifluoromethyl)phenyl]sulfonyl}amino)ethyl]piperidin-1-yl}benzoic acid]
9 | 4 µM |  |  | 2.36 | 2.5 |  |  | CCc1ccc(S(=O)(=O)c2ccccc2)cc1S(=O)(=O)NC1CCNCC1 [Example 921, 2-ethyl-5-(phenylsulfonyl)-N-piperidin-4-ylbenzenesulfonamide]
10 | 8 µM |  |  | 2.15 | 3 |  |  | CCCc1ccc(S(=O)(=O)c2ccccc2)cc1S(=O)(=O)NC1CCNCC1 [Example 925, 5-(phenylsulfonyl)-N-piperidin-4-yl-2-propylbenzenesulfonamide]
11 | 0.28 µM |  |  | 1.81 | 2.2 |  |  | O=C(O)c1cccc(S(=O)(=O)N2CCCC2CCNS(=O)(=O)c2cc(S(=O)(=O)c3ccccc3)ccc2C(F)(F)F)c1 (stereo not drawn) [Example 920, 3-({2-[2-({[5-(phenylsulfonyl)-2-(trifluoromethyl)phenyl]sulfonyl}amino)ethyl]pyrrolidin-1-yl)sulfonyl)benzoic acid]
12 | 0.15 µM |  |  | 0.746 |  |  |  | CN(C)C(=O)CN1CCC(NS(=O)(=O)c2cc(S(=O)(=O)c3ccccc3)ccc2C(F)(F)F)CC1 [Example 1085, N,N-dimethyl-2-[4-({[5-(phenylsulfonyl)-2-(trifluoromethyl)phenyl]sulfonyl}amino)piperidin-1-yl]acetamide]
13 | 0.9 µM |  |  |  | 2.2 |  |  | CCOC(=O)CCN(C)CCNS(=O)(=O)c1cc(S(=O)(=O)c2ccccc2)ccc1C(F)(F)F [Example 907, ethyl N-methyl-N-[2-({[5-(phenylsulfonyl)-2-(trifluoromethyl)phenyl]sulfonyl}amino)ethyl]-β-alaninate]
14 | 7 µM |  |  |  |  | 2.2 | 1.1 | Cc1cccc(S(=O)(=O)c2ccc(Cl)c(S(=O)(=O)NC3CCOCC3)c2)c1 [Example 604, 2-chloro-5-[(3-methylphenyl)sulfonyl]-N-(tetrahydro-2H-pyran-4-yl)benzenesulfonamide]
15 | 2.9 µM |  |  | 8.7 | 2.6 |  |  | CCCCNC(=S)N1CCC(NS(=O)(=O)c2cc(S(=O)(=O)c3ccc(F)cc3)ccc2C(C)C)CC1 [Example 694, N-butyl-4-[({5-[(4-fluorophenyl)sulfonyl]-2-isopropylphenyl}sulfonyl)amino]piperidine-1-carbothioamide]
16 | 0.5 µM |  |  | 1.36 | 3.6 |  |  | CN(CCNS(=O)(=O)c1cc(S(=O)(=O)c2ccccc2)ccc1C(F)(F)F)C(=O)N[C@H]1CCN(C(=O)OC(C)(C)C)C1 [Example 926, tert-butyl (3S)-3-[({methyl[2-({[5-(phenylsulfonyl)-2-(trifluoromethyl)phenyl]sulfonyl}amino)ethyl]amino}carbonyl)amino]pyrrolidine-1-carboxylate]
17 | 8 µM and 15 µM | 3.3 | 1.2 |  |  |  |  | CCc1ccc(S(=O)(=O)c2ccccc2)cc1S(=O)(=O)NCCCN(C)C [Example 228, N-[3-(dimethylamino)propyl]-2-ethyl-5-(phenylsulfonyl)benzenesulfonamide]
18 | 0.4 µM |  |  | 2.57 | 2.7 |  |  | CN(CCNS(=O)(=O)c1cc(S(=O)(=O)c2ccccc2)ccc1C(F)(F)F)S(=O)(=O)c1cccc(C(=O)O)c1 [Example 883, 3-({methyl[2-({[5-(phenylsulfonyl)-2-(trifluoromethyl)phenyl]sulfonyl}amino)ethyl]amino}sulfonyl)benzoic acid]
19 | 0.01 µM |  |  | 0.034 |  |  |  | NC(=O)COc1ccc2c(c1)CC(NS(=O)(=O)c1cc(S(=O)(=O)c3ccccc3)ccc1C(F)(F)F)C2 (stereo not drawn) [Example 1062, 2-{[2-({[5-(phenylsulfonyl)-2-(trifluoromethyl)phenyl]sulfonyl}amino)-2,3-dihydro-1H-inden-5-yl]oxy}acetamide]
20 | 0.6 µM | 2.9 | 1 |  |  |  |  | CNc1ccc(S(=O)(=O)c2ccc(C(C)C)c(S(=O)(=O)NC3CCOCC3)c2)cc1 [Example 358, 2-isopropyl-5-{[4-(methylamino)phenyl]sulfonyl}-N-(tetrahydro-2H-pyran-4-yl)benzenesulfonamide]
21 | 3 µM |  |  | 0.936 |  |  |  | CN(CCNS(=O)(=O)c1cc(S(=O)(=O)c2ccccc2)ccc1C(F)(F)F)C(=O)N[C@@H]1CCNC1 [Example 1008, N-[2-(methyl{[(3R)-pyrrolidin-3-ylamino]carbonyl}amino)ethyl]-5-(phenylsulfonyl)-2-(trifluoromethyl)benzenesulfonamide]
22 | 0.3 µM |  |  | 1.17 | 3.7 |  |  | COc1ccc(C(=O)N2CCC(NS(=O)(=O)c3cc(S(=O)(=O)c4ccccc4)ccc3C(F)(F)F)CC2)c(OC)c1 [Example 708, N-[1-(2,4-dimethoxybenzoyl)piperidin-4-yl]-5-(phenylsulfonyl)-2-(trifluoromethyl)benzenesulfonamide]
23 | 1.9 µM | 2.3 | 1 |  |  |  |  | COc1ccc(C(=O)N2CCC(NS(=O)(=O)c3cc(S(=O)(=O)c4ccccc4)ccc3C)CC2)cc1 [Example 467, N-[1-(4-methoxybenzoyl)piperidin-4-yl]-2-methyl-5-(phenylsulfonyl)benzenesulfonamide]
24 | 1.1 µM |  |  |  | 4.2 |  |  | CC(C)c1ccc(S(=O)(=O)c2ccc(F)cc2)cc1S(=O)(=O)NCC(O)c1ccccc1 (stereo not drawn) [Example 732, 5-[(4-fluorophenyl)sulfonyl]-N-(2-hydroxy-2-phenylethyl)-2-isopropylbenzenesulfonamide]
25 | 0.4 µM |  |  | 0.214 | 6.7 |  |  | CC(C)(C)c1ccc(C(=O)N2CCC(NS(=O)(=O)c3cc(S(=O)(=O)c4ccccc4)ccc3C(F)(F)F)CC2)cc1 [Example 718, N-[1-(4-tert-butylbenzoyl)piperidin-4-yl]-5-(phenylsulfonyl)-2-(trifluoromethyl)benzenesulfonamide]
26 | 3 µM |  |  | 1.77 | 2.3 |  |  | CN(CCNS(=O)(=O)c1cc(S(=O)(=O)c2ccccc2)ccc1C(F)(F)F)C(=O)N1CCN(C(=O)OC(C)(C)C)CC1 [Example 887, tert-butyl 4-({methyl[2-({[5-(phenylsulfonyl)-2-(trifluoromethyl)phenyl]sulfonyl}amino)ethyl]amino}carbonyl)piperazine-1-carboxylate]
